The numbers were not newly measured in patent publication US20230089681A1, “USE OF A COMBINATION OF SULFICANT COMPOUNDS WITH A LIQUID CARRIER AS A SELF EMULSIFYING DRUG DELIVERY SYSTEM” (priority 2021, published 2023), which cites them from elsewhere.

Like-named read-outs stand apart in the source and are kept apart here.

Regarding `COc1ccc2cc3[n+](cc2c1OC)CCc1cc2c(cc1-3)OCO2` [Berberine], the absorption (oral, in capsule form taken with water) is 0.306% and the absorption (traditional oral administration) was 0.36%.
